# From US10681909B2, “Herbicidal triazoles” (FMC Corporation, priority 2014, dated 2020)
# Columns and labels:
# galium = assay: Test A postemergence; format: in vivo, Galium aparine; settings: 0 to 100 scale (0 no effect, 100 complete control), approx. 10 d
# Summary of the method: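 Visual injury score, 0 (no effect) to 100 (complete control), taken about 10 d after treatment against untreated greenhouse controls. Chemicals formulated in non-phytotoxic solvent plus surfactant; preemergence by directed soil spray onto sown loam/sand, postemergence onto one- to two-leaf plants.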
# johnsongrass = assay: Test C preemergence; format: in vivo, Sorghum halepense; settings: for Plant response rating (scale of 0 to 100 where 0 is no effect and 100 is complete control): Johnsongrass, preemergence; for Johnsongrass plant response rating (0 to 100): Preemergence, visual rating after 13 to 15 d
# From the text: (§1) Seeds of plant species selected from blackgrass (Alopecurus myosuroides), ryegrass, Italian (Italian ryegrass, Lolium multiflorum), wheat (winter wheat, Triticum aestivum), galium (catchweed bedstraw, Galium aparine), corn (Zea mays), crabgrass, large (large crabgrass, Digitaria sanguinalis), foxtail, giant, (giant foxtail, Setaria faberii), johnsongrass (Sorghum halepense), lambsquarters (Chenopodium album), morningglory (Ipomoea coccinea), nutsedge, yellow (yellow nutsedge, Cyperus esculentus), pigweed (Amaranthus retroflexus), ragweed (common ragweed, Ambrosia elatior), soybean (Glycine max), barnyardgrass (Echinochloa crus-galli), oilseed rape (Brassica napus), waterhemp (common waterhemp, Amaranthus rudis), and velvetleaf (Abutilon theophrasti) were planted into a blend of loam soil and sand and treated preemergence with test chemicals formulated in a non-phytotoxic solvent mixture which included a surfactant. At the same time, plants selected from these crop and weed species and also chickweed (common chickweed, Stellaria media), oat, wild (wild oat, Avena fatua), and kochia (Kochia scoparia), were planted in pots containing Sunshine Redi-Earth® planting medium comprising spaghnum peat moss, vermiculite, starter nutrients and dolomitic limestone and treated with postemergence applications of test chemicals formulated in the same manner. Plants ranged in height from 2 to 18 cm (1- to 4-leaf stage) for postemergence treatments. […] A dash (-) response means no test result.
# lambsquarters = assay: Test D postemergence; format: in vivo, Chenopodium album; settings: scale 0 to 100
# From the text: (§2) Seeds of plant species selected from bluegrass (annual bluegrass, Poa annua), blackgrass (Alopecurus myosuroides), canarygrass (Phalaris minor), chickweed (common chickweed, Stellaria media), galium (catchweed bedstraw, Galium aparine), bromegrass, down (downy bromegrass, Bromus tectorum), Russian thistle (Salsola kali), field poppy (Papaver rhoeas), field violet (Viola arvensis), foxtail, green (green foxtail, Setaria viridis), deadnettle (henbit deadnettle, Lamium amplexicaule), ryegrass, Ital. (Italian ryegrass, Lolium multiflorum), kochia (Kochia scoparia), lambsquarters (Chenopodium album), oilseed rape (Brassica napus), pigweed (Amaranthus retroflexus), chamomile (scentless chamomile, Matricaria inodora), speedwell (bird's-eye speedwell, Veronica persica), barley, spring (spring barley, Hordeum vulgare), wheat, spring (spring wheat, Triticum aestivum), buckwheat, wild (wild buckwheat, Polygonum convolvulus), wild mustard (Sinapis arvensis), oat, wild (wild oat, Avena fatua), radish, wild (wild radish, Raphanus raphanistrum), […]), barley, winter (winter barley, Hordeum vulgare), and wheat, winter (winter wheat, Triticum aestivum) were planted into a silt loam soil and treated preemergence with test chemicals formulated in a non-phytotoxic solvent mixture which included a surfactant. At the same time, these species were planted in pots containing Sunshine Redi-Earth® planting medium comprising spaghnum peat moss, vermiculite, starter nutrients and dolomitic limestone and treated with postemergence applications of the test chemicals formulated in the same manner. Plants ranged in height from 2 to 18 cm (1- to 4-leaf stage). Treated plants and controls were maintained in a controlled growth environment for 14 to 21 d after which time all species were compared to controls and visually evaluated. […] A dash (-) response means no test result.
# ryegrass, Ital. = assay: Test D preemergence; format: in vivo, Lolium multiflorum; settings: for Plant response rating (0 to 100), Ryegrass, Ital.: 16 g ai/ha, 0 is no effect, 100 is complete control; for Plant response rating: Ryegrass, Ital.: scale 0 to 100
# From the text: as §2
# chamomile = assay: Test D postemergence; format: in vivo, Matricaria inodora; settings: scale 0 to 100
# From the text: as §2
# wheat, spring = assay: Test D postemergence; format: in vivo, Triticum aestivum; settings: scale 0 to 100
# From the text: as §2
# wheat, winter = assay: Test D postemergence; format: in vivo, Triticum aestivum; settings: scale 0 to 100
# From the text: as §2
# soybean = assay: Test C preemergence; format: in vivo, Glycine max; settings: for Soybean plant response rating (0 to 100): Preemergence, visual rating after 13 to 15 d; for Plant response rating (scale of 0 to 100 where 0 is no effect and 100 is complete control): Soybean, preemergence, 250 g ai/ha
# From the text: as §1
Structure (SMILES),"Plant response rating, Galium (galium; 125 g ai/ha)","Plant response rating, Galium (galium; 500 g ai/ha)",Plant response rating (scale of 0 to 100 where 0 is no effect and 100 is complete control) (johnsongrass; 125 g ai/ha),Plant response rating (scale of 0 to 100 where 0 is no effect and 100 is complete control) (johnsongrass; 250 g ai/ha),Johnsongrass plant response rating (0 to 100) (johnsongrass; 31 g ai/ha),Johnsongrass plant response rating (0 to 100) (johnsongrass; 62 g ai/ha),Plant response rating: Lambsquarters (lambsquarters; 16 g ai/ha),Plant response rating: Lambsquarters (lambsquarters; 31 g ai/ha),Plant response rating: Lambsquarters (lambsquarters; 62 g ai/ha),Plant response rating: Lambsquarters (lambsquarters; 125 g ai/ha),"Plant response rating (0 to 100), Ryegrass, Ital. (ryegrass, Ital.)","Plant response rating: Ryegrass, Ital. (ryegrass, Ital.; 62 g ai/ha)","Plant response rating: Ryegrass, Ital. (ryegrass, Ital.; 125 g ai/ha)",Plant response rating: Chamomile (chamomile; 16 g ai/ha),Plant response rating: Chamomile (chamomile; 31 g ai/ha),Plant response rating: Chamomile (chamomile; 62 g ai/ha),Plant response rating: Chamomile (chamomile; 125 g ai/ha),"Plant response rating: Wheat, Spring (wheat, spring; 16 g ai/ha)","Plant response rating: Wheat, Spring (wheat, spring; 31 g ai/ha)","Plant response rating: Wheat, Spring (wheat, spring; 62 g ai/ha)",also measured
CCOc1nc(-c2ccccc2)nn1Cc1ccnc(C(F)(F)F)c1 [Compound 27],80,90,80,100,45,80,85,95,95,95,25,65,75,15,15,20,35,15,15,20,"Plant response rating: Wheat, Spring (wheat, spring; 125 g ai/ha): 35; Plant response rating: Wheat, Winter (wheat, winter; 16 g ai/ha): 25; Plant response rating: Wheat, Winter (wheat, winter; 31 g ai/ha): 25; Plant response rating: Wheat, Winter (wheat, winter; 62 g ai/ha): 30; Plant response rating: Wheat, Winter (wheat, winter; 125 g ai/ha): 30; Soybean plant response rating (0 to 100) (soybean; 31 g ai/ha): 35; Soybean plant response rating (0 to 100) (soybean; 62 g ai/ha): 40; Plant response rating (scale of 0 to 100 where 0 is no effect and 100 is complete control) (soybean): 75"
FC(F)(F)COc1nc(-c2ccccc2)nn1Cc1ccnc(C(F)(F)F)c1 [Compound 24],70,90,55,85,10,40,65,75,80,85,40,40,45,30,20,20,30,15,15,25,"Plant response rating: Wheat, Spring (wheat, spring; 125 g ai/ha): 15; Plant response rating: Wheat, Winter (wheat, winter; 16 g ai/ha): 15; Plant response rating: Wheat, Winter (wheat, winter; 31 g ai/ha): 15; Plant response rating: Wheat, Winter (wheat, winter; 62 g ai/ha): 20; Plant response rating: Wheat, Winter (wheat, winter; 125 g ai/ha): 20; Soybean plant response rating (0 to 100) (soybean; 31 g ai/ha): 0; Soybean plant response rating (0 to 100) (soybean; 62 g ai/ha): 5; Plant response rating (scale of 0 to 100 where 0 is no effect and 100 is complete control) (soybean): 35"
Fc1ccc(-c2nc(OCC(F)(F)F)n(Cc3ccnc(C(F)(F)F)c3)n2)cc1 [Compound 30],60,90,85,95,35,65,85,90,95,95,40,55,70,20,30,40,70,25,30,35,"Plant response rating: Wheat, Spring (wheat, spring; 125 g ai/ha): 45; Plant response rating: Wheat, Winter (wheat, winter; 16 g ai/ha): 15; Plant response rating: Wheat, Winter (wheat, winter; 31 g ai/ha): 15; Plant response rating: Wheat, Winter (wheat, winter; 62 g ai/ha): 25; Plant response rating: Wheat, Winter (wheat, winter; 125 g ai/ha): 35; Soybean plant response rating (0 to 100) (soybean; 31 g ai/ha): 10; Soybean plant response rating (0 to 100) (soybean; 62 g ai/ha): 5; Plant response rating (scale of 0 to 100 where 0 is no effect and 100 is complete control) (soybean): 40"
